Earlier results, collected in patent US11986533B2, “Macromonomers and bottle brush polymers for delivery of biological agents” (Regents of the University of Minnesota, priority 2021, dated 2024).

log P: 2.14
SMILES: O=C1NC(=O)C(c2ccccc2)(c2ccccc2)N1 [phenytoin]
